According to ChEMBL document CHEMBL5335807, “Rational design, synthesis and biological evaluation of novel HIV-1 protease inhibitors containing 2-phenylacetamide derivatives as P2 ligands with potent activity against DRV-Resistant HIV-1 variants” (Bioorg Med Chem Lett, 2024):

What was measured:
[1] = biological target: Human immunodeficiency virus type 1 protease (Human immunodeficiency virus 1, UniProt Q72874); assay: Inhibition of HIV-1 protease by fluorescence resonance energy transfer analysis
[2] = system: Human immunodeficiency virus 1; assay: Antiviral activity against HIV-1 NL4-3 assessed as inhibition of viral growth; type: functional, organism-based; conditions: Human immunodeficiency virus 1, NL4-3
[3] = system: Human immunodeficiency virus 1; assay: Antiviral activity against DRV-resistant HIV-1 assessed as inhibition of viral growth by single-round infection assay; type: functional, organism-based; conditions: Human immunodeficiency virus 1, DRV
[4] = Resistance index, ratio of EC50 for antiviral activity against DRV-resistant HIV-1 to EC50 for antiviral activity against wild type HIV-1 NL4-3; type: functional, Human immunodeficiency virus 1

SMILES	IC50 [1] [µM]	also measured
COc1cc(CC(=O)N[C@@H](Cc2ccccc2)[C@H](O)CN(CC(C)C)S(=O)(=O)c2ccc(N)cc2)ccc1O	0.379	–
COc1ccc(S(=O)(=O)N(CC(C)C)C[C@@H](O)[C@H](Cc2ccccc2)NC(=O)Cc2ccc(OC)c(OC)c2)cc1	0.085	–
COc1ccc(CC(=O)N[C@@H](Cc2ccccc2)[C@H](O)CN(CC(C)C)S(=O)(=O)c2ccc(OC)nc2)cc1	0.0518	–
COc1cc(CC(=O)N[C@@H](Cc2ccccc2)[C@H](O)CN(CC(C)C)S(=O)(=O)c2ccc(SC)cc2)ccc1O	0.116	–
CSc1ccc(S(=O)(=O)N(CC(C)C)C[C@@H](O)[C@H](Cc2ccccc2)NC(=O)Cc2ccc(O)cc2)cc1	0.0042	–
COc1ccc(S(=O)(=O)N(CC(C)C)C[C@@H](O)[C@H](Cc2ccccc2)NC(=O)Cc2cccc(O)c2)cc1	0.00087	EC50 [2]: 1.05 µM; EC50 [3]: 8.85 µM; Ratio EC50 [4]: 8.43
COc1ccc(CC(=O)N[C@@H](Cc2ccccc2)[C@H](O)CN(CC(C)C)S(=O)(=O)c2ccc(SC)cc2)cc1O	0.00928	–
COc1ccc(S(=O)(=O)N(CC(C)C)C[C@@H](O)[C@H](Cc2ccccc2)NC(=O)Cc2ccc(O)c(OC)c2)cn1	0.17	–
COc1ccc(S(=O)(=O)N(CC(C)C)C[C@@H](O)[C@H](Cc2ccccc2)NC(=O)Cc2ccc(O)c(OC)c2)cc1	0.05	–
COc1ccc(S(=O)(=O)N(CC(C)C)C[C@@H](O)[C@H](Cc2ccccc2)NC(=O)Cc2cccc(OC)c2)cc1	0.00695	–
CC(C)CN(C[C@@H](O)[C@H](Cc1ccccc1)NC(=O)Cc1cccc(O)c1)S(=O)(=O)c1ccc(N)cc1	0.00555	–
CSc1ccc(S(=O)(=O)N(CC(C)C)C[C@@H](O)[C@H](Cc2ccccc2)NC(=O)Cc2cccc(O)c2)cc1	0.00218	EC50 [2]: 0.94 µM; EC50 [3]: 2.36 µM; Ratio EC50 [4]: 2.51
COc1ccc(S(=O)(=O)N(CC(C)C)C[C@@H](O)[C@H](Cc2ccccc2)NC(=O)Cc2ccc(O)cc2)cn1	0.00726	–
COc1ccc(S(=O)(=O)N(CC(C)C)C[C@@H](O)[C@H](Cc2ccccc2)NC(=O)Cc2ccc(OC)c(O)c2)cc1	0.00397	–
COc1ccc(S(=O)(=O)N(CC(C)C)C[C@@H](O)[C@H](Cc2ccccc2)NC(=O)Cc2ccc(OC)c(OC)c2)cn1	0.176	–
COc1ccc(CC(=O)N[C@@H](Cc2ccccc2)[C@H](O)CN(CC(C)C)S(=O)(=O)c2ccc(N)cc2)cc1O	0.0275	–

SMILES	IC50 [1] [µM]	also measured
CSc1ccc(S(=O)(=O)N(CC(C)C)C[C@@H](O)[C@H](Cc2ccccc2)NC(=O)Cc2ccc(O)c(O)c2)cc1	0.00229	–
COc1ccc(S(=O)(=O)N(CC(C)C)C[C@@H](O)[C@H](Cc2ccccc2)NC(=O)Cc2cccc(O)c2)cn1	0.0012	EC50 [2]: 0.95 µM; EC50 [3]: 5.02 µM; Ratio EC50 [4]: 5.26
COc1ccc(CC(=O)N[C@@H](Cc2ccccc2)[C@H](O)CN(CC(C)C)S(=O)(=O)c2ccc(N)cc2)cc1	0.377	–
COc1cccc(CC(=O)N[C@@H](Cc2ccccc2)[C@H](O)CN(CC(C)C)S(=O)(=O)c2ccc(N)cc2)c1	0.0351	–
COc1ccc(CC(=O)N[C@@H](Cc2ccccc2)[C@H](O)CN(CC(C)C)S(=O)(=O)c2ccc(OC)cc2)cc1	0.021	–
CC(C)CN(C[C@@H](O)[C@H](Cc1ccccc1)NC(=O)Cc1ccc(O)c(O)c1)S(=O)(=O)c1ccc(N)cc1	0.00946	–
COc1ccc(CC(=O)N[C@@H](Cc2ccccc2)[C@H](O)CN(CC(C)C)S(=O)(=O)c2ccc(SC)cc2)cc1	0.0858	–
COc1ccc(CC(=O)N[C@@H](Cc2ccccc2)[C@H](O)CN(CC(C)C)S(=O)(=O)c2ccc(N)cc2)cc1OC	1.02	–
CC(C)CN(C[C@@H](O)[C@H](Cc1ccccc1)NC(=O)Cc1ccc(O)cc1)S(=O)(=O)c1ccc(N)cc1	0.032	–
COc1cccc(CC(=O)N[C@@H](Cc2ccccc2)[C@H](O)CN(CC(C)C)S(=O)(=O)c2ccc(SC)cc2)c1	0.0304	–
COc1cccc(CC(=O)N[C@@H](Cc2ccccc2)[C@H](O)CN(CC(C)C)S(=O)(=O)c2ccc(OC)nc2)c1	0.0125	–
COc1ccc(S(=O)(=O)N(CC(C)C)C[C@@H](O)[C@H](Cc2ccccc2)NC(=O)Cc2ccc(O)cc2)cc1	0.00222	–
COc1ccc(S(=O)(=O)N(CC(C)C)C[C@@H](O)[C@H](Cc2ccccc2)NC(=O)Cc2ccc(O)c(O)c2)cn1	0.00287	–
COc1ccc(S(=O)(=O)N(CC(C)C)C[C@@H](O)[C@H](Cc2ccccc2)NC(=O)Cc2ccc(O)c(O)c2)cc1	0.00054	EC50 [2]: 1.86 µM; EC50 [3]: 23.2 µM; Ratio EC50 [4]: 12.5
COc1ccc(S(=O)(=O)N(CC(C)C)C[C@@H](O)[C@H](Cc2ccccc2)NC(=O)Cc2ccc(OC)c(O)c2)cn1	0.013	–
COc1ccc(CC(=O)N[C@@H](Cc2ccccc2)[C@H](O)CN(CC(C)C)S(=O)(=O)c2ccc(SC)cc2)cc1OC	0.171	–
